From patent publication US8282926B2, “CCR5-specific antibodies with HIV neutralizing activity that recognize a linear dodecapeptide that mimics a conformational epitope in the second extracellular loop of CCR5” (The United States of America, as Represented by the …, priority 2004, dated 2012)

What was measured:
mAb 2D7 [1] = test: Peptide ELISA: mAb 2D7 binding to biotinylated peptides captured on streptavidin; parameters: species or system mouse; conditions: for binding of mAb 2D7 to peptide in ELISA: biotinylated peptide captured by streptavidin
Procedure: The bound antibodies were quantified by HRP-conjugated goat anti-mouse IgG antibody. […] Microtiter wells, coated with mAb 2D7 at 200 ng/well, were incubated with serially diluted synthetic 2D7-2SK peptide or with a control peptide (CGRAARIGFPGAYTTKNG) (SEQ ID NO:3) for 30 min at room temperature, p2D7-2SK phages were then added to all wells (10^9 phages/well), followed by addition of HRP-conjugated anti-phage antibodies. […] MAb 2D7 (50 ng/100 μl/well) was added to plates coated with either unmodified biotin-2D7-2SK peptide or mutated biotin-2D7-2SK peptide derivatives (Table 1), all captured on streptavidin coated wells. The bound 2D7 antibodies were quantified by HRP-conjugated goat anti-mouse IgG antibody. The absorbance value (0.49) of mAb 2D7 binding to 2D7-2SK peptide (unmodified) is represented as 100% control binding.
A. Materials. […] Monoclonal antibody (mAb) 2D7 was purchased from BD Pharmingen (San Diego, Calif.). Immunoglobulin and HRP (horseradish peroxidase) conjugated secondary antibodies used for ELISA were obtained from Jackson Immuno Research Laboratories (West Grove, Pa.). Buffers and substrates for ELISA were purchased from KPL Biotech (Gaithersburg, Md.). New Zealand Rabbits were procured from Charles River (Wilmington, Mass.). B. Epitope mapping using phage display library. A random, linear, dodecapeptide-phage display library (Ph.D-12, New England Biolabs) was used for mAb 2D7 epitope mapping. Affinity selection of the phage clones from the random peptide library was carried out per the manufacturer's instructions with minor modifications. Microtiter wells were coated with 200 ng mAb 2D7 in 100 μl PBS, pH 7.4, at 4° C. for 12 h followed by 1 h at room temperature (RT). The wells were washed with PBS containing 0.05% Tween-20 (PBST) and blocked with EMEM containing 5% FBS at RT for 2 h. The phage library (1×10^10 phages/100 μl) was added to the blocked wells and incubated at RT for 1 h. Unbound phages were washed-off with ten washes of PBST followed by three washes with PBS. The bound phages were eluted at low pH by incubation with elution buffer (0.1 N Gly.HCl, pH 2.2 containing 1 mg/ml BSA) at 37° C. for 10 min. Eluent phages were neutralised with 6 μl of 2 M Tris (pH unadjusted) per 100 μl phage eluate. After four rounds of biopanning, the phage clones were analysed by DNA sequencing and affinity-capture phage ELISA. C. Phage ELISA. Phages used for ELISA were derived from clones selected after the fourth round of panning. Microtiter plates coated with 200 ng of mAb 2D7 were blocked with EMEM containing 5% FBS (blocking solution). The phages (10^10/100 μl/well) diluted in blocking solution were then added and incubated for 1 h at room temperature (RT). The plates were washed three times with PBST prior to addition of […] anti-phage antibody (GE Healthcare, Piscataway, N.J.), and the reaction was quantified using ABTS substrate. Absorbance was measured at 405 nm. D. Peptide ELISA. Peptides were biotinylated using maleimide PEO2-Biotin reagent as per manufacturer's instructions (Pierce Biotech, Rockford, Ill.). The biotinylated peptide ([…]) was captured onto wells coated with 200 ng of streptavidin. After blocking with EMEM containing 5% FBS, serial dilutions of mAb 2D7 in blocking solution were added to each well, incubated for 1 hr at RT, followed by addition of peroxidase-conjugated goat anti-mouse IgG. The reaction was quantified using ABTS substrate. Absorbance was measured at 405 nm. […]

mAb 2D7 [2] = test: Competition phage ELISA using synthetic peptides; type: binding, mouse; conditions: free peptide, FIG. 3B
[3] = tested on: PM1 (CD4+/CCR5+) cells and 12E1 cells expressing HIV-1 envelope; test: Fusion-inhibition (syncytium-formation) assay, PM1 cells with 12E1 cells expressing HIV-1 envelope; type: cell-based, human
2D7-2SK peptide = test: Peptide ELISA: antibody binding to biotinylated 2D7-2SK peptide; conditions: ELISA / binding assay
Procedure: IgG antibodies from rabbit immunized subcutaneously with KLH-conjugated 2D7-2SK peptide were used in peptide and Cell ELISA. […] Specific antibody binding was measured by HRP-conjugated goat anti-rabbit IgG antibody.
A. Materials. […] Monoclonal antibody (mAb) 2D7 was purchased from BD Pharmingen (San Diego, Calif.). Immunoglobulin and HRP (horseradish peroxidase) conjugated secondary antibodies used for ELISA were obtained from Jackson Immuno Research Laboratories (West Grove, Pa.). Buffers and substrates for ELISA were purchased from KPL Biotech (Gaithersburg, Md.). New Zealand Rabbits were procured from Charles River (Wilmington, Mass.). B. Epitope mapping using phage display library. A random, linear, dodecapeptide-phage display library (Ph.D-12, New England Biolabs) was used for mAb 2D7 epitope mapping. Affinity selection of the phage clones from the random peptide library was carried out per the manufacturer's instructions with minor modifications. […] After four rounds of biopanning, the phage clones were analysed by DNA sequencing and affinity-capture phage ELISA. […] The plates were washed three times with PBST prior to addition of […] anti-phage antibody (GE Healthcare, Piscataway, N.J.), and the reaction was quantified using ABTS substrate. Absorbance was measured at 405 nm. […] The reaction was quantified using ABTS substrate. Absorbance was measured at 405 nm. […]

## E-W-Q-K-E-G-L-V-T-L-W-L-G-G-G-G-S-C (EWQKEGLVTLWLGGGGSC) [2D7-2SK]
mAb 2D7 [1]
  binding of mAb 2D7 to peptide in ELISA: concentration-dependent specific reactivity
mAb 2D7 [1]; mAb 2D7 50 ng/100 μl/well, represented as 100% control binding, FIG. 3C
  absorbance value of mAb 2D7 binding to peptide: 0.49
mAb 2D7 [2]
  inhibition of binding of phage p2D7-2SK to mAb 2D7-coated plates: inhibited
[3]; peptide alone
  inhibitory activity of peptide by itself in the fusion assay: did not demonstrate any inhibitory activity

## E-W-Q-R-E-G-L-V-T-L-W-L-G-G-G-G-S-C (EWQREGLVTLWLGGGGSC) [2D7-2SK-K4R]
mAb 2D7 [1]
  binding of mAb 2D7 to peptide in ELISA: completely lost binding

## F-C-A-L-D-G-D-F-G-W-L-A-P-A-C (FCALDGDFGWLAPAC) [MD23, reference compound]
mAb 2D7 [1]
  binding of mAb 2D7 to peptide in ELISA: did not bind

## Q-L-W-L-G-W-T-E-L-E-G-V-K-G-G-G-S-C (QLWLGWTELEGVKGGGSC) [2D7-2SK-SCR, reference compound]
mAb 2D7 [1]
  binding of mAb 2D7 to peptide in ELISA: not

B1: ScFv-SK-34: single chain human monoclonal antibody against peptide 2D7-2SK; VH SEQ ID NO:12, VL SEQ ID NO:14 (antibody, listed as Homo sapiens, V domains shown)
VH: EVQLLESGGGLVQPGGSLRLSCAASGFTFDDYGMSWVRQAPGKGLEWVSVISASGGSTYYADSVNGRFTISRDNSKNTLYLQMNSLRAEDTAVYYCARYLPGLWAMDVWGQGTLVTVSSGSA
VL: DIVLTQPPSASGTPGQRVTISCTGSRSNIGKNYVSWYQQLPGKAPKLLIYKNYQRPSGVPDRFSGSKSGTSASLAISGLRSEDEADYYCAAWDDSLSGWVFGGSTQLTVLA
[3]; R5 HIV-1 envelopes, human CCR5 expressing cells
  inhibition of HIV syncytia formation, in words: positive
2D7-2SK peptide
  binding to 2D7-2SK peptide: bind preferentially and with high affinity
